Values of other authors as cited in patent US10352920B2, “Supplements and monitoring systems for dosing of the supplements” (i-CalQ, LLC, priority 2012, dated 2019).
Each block holds one molecule with its values, some of them ahead of it.

Tests used:
lipoxygenase = conditions: in vitro
[1] = target: inducible nitric oxide synthase (Homo sapiens, UniProt P35228); conditions: in vitro
[2] = dietary curcumin
cognitive function = conditions: administration of 9 grams
cortisol = conditions: ingestion of 1 gram for 7 days
[3] = test system: athletes involved in cycling, weight training and endurance running; conditions: sports nutrition studies

Chain of inducible nitric oxide synthase (P35228 whole entry): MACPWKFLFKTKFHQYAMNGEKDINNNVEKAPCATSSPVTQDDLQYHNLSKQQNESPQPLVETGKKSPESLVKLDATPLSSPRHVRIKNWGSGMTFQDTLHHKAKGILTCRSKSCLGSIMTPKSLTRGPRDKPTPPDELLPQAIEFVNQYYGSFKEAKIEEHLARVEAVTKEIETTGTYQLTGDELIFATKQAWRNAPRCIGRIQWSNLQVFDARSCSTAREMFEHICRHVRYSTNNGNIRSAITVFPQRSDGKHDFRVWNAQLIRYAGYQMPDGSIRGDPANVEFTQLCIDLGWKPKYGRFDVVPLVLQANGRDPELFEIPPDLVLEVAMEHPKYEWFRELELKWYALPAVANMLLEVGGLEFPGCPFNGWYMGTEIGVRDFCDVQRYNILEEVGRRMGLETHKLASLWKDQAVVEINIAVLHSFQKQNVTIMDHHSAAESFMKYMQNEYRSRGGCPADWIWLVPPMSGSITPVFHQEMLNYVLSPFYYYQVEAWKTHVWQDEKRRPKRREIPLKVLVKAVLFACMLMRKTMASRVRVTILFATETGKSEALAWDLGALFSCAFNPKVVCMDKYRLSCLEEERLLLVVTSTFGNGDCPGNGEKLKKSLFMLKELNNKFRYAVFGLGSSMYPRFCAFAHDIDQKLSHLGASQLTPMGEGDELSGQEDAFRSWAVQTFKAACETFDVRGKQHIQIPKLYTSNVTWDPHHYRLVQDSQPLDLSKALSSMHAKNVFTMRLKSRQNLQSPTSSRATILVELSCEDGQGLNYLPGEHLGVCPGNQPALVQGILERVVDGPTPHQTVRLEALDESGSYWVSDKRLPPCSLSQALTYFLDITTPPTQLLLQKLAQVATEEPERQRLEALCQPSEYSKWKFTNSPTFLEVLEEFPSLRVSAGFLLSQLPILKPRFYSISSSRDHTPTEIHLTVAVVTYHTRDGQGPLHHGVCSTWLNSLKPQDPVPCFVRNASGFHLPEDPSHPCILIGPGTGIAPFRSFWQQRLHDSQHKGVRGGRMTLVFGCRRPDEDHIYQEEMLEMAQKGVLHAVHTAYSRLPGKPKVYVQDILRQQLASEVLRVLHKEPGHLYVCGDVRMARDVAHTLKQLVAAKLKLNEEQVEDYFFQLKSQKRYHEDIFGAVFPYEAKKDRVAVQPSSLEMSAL

activity of lipoxygenase (lipoxygenase): down-regulating the activity | activity of inducible nitric oxide synthase [1]: down-regulating the activity | bioavailability (levels in plasma and tissues) [2]: poor bioavailability
Molecule: COc1cc(/C=C/C(=O)CC(=O)/C=C/c2ccc(O)c(OC)c2)ccc1O [curcumin]

Molecule: N[C@@H](Cc1ccc(O)cc1)C(=O)O [tyrosine]
cognitive function following experimentally induced hypothermia (cognitive function): improves cognitive function

Molecule: O=C1O[C@H]([C@@H](O)CO)C(O)=C1O [vitamin C]
cortisol rise in response to lipopolysaccharide administration (cortisol): blunts the cortisol rise

Molecule: phosphotidylserine
muscle soreness [3]: prevent muscle soreness | recovery [3]: speed up recovery | well-being [3]: improve well-being
